Each compound was assayed against T1, recombinant human GR (Homo sapiens, UniProt P04150) (assay: Human Glucocorticoid Receptor (GR) Assay (fluorescence polarization, Panvera/Invitrogen kit)). Conditions: not given.
T1 construct: purchased Panvera/Invitrogen P2812 (kit P2893)
T1 sequence (P04150 1-777): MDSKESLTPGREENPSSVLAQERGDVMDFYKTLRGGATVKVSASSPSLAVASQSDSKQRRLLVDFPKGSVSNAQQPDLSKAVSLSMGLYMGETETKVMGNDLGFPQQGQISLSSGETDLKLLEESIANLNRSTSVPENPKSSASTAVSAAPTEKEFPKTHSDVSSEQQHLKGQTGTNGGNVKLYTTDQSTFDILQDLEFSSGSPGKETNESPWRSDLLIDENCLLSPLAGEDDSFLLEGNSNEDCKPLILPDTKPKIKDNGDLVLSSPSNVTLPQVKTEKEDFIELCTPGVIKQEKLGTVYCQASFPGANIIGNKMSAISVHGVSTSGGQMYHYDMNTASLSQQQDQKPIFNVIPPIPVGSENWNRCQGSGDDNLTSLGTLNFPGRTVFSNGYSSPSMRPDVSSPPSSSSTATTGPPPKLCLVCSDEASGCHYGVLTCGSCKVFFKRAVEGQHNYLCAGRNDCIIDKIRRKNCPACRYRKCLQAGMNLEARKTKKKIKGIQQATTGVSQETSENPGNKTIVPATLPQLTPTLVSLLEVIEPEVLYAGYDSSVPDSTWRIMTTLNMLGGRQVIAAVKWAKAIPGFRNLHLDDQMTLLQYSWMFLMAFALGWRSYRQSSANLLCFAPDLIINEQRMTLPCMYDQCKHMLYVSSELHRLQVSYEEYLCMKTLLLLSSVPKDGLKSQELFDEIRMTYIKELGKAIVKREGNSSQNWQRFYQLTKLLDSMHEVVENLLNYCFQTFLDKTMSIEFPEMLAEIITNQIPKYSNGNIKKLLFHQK
Format: binding
In short: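 Fluorescence polarization competition with recombinant GR and GS Red fluorescent ligand plus stabilizing peptide and DTT in potassium phosphate/sodium molybdate/EDTA buffer with DMSO. Incubated 2 hours at room temperature in the dark; 0% control DMSO, 100% control 10 μM dexamethasone.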

Point of comparison: `C[C@]12Cc3cnn(-c4ccc(F)cc4)c3C=C1CC[C@@H]1[C@@H]2[C@@H](O)C[C@@]2(C)[C@H]1CC[C@]2(OC(=O)CF)C(=O)SCF` [Example 28, (1R,3aS,3bS,10aR,10bS,11S,12aS)-1-{[(Fluoromethyl)thio]carbonyl}-7-(4-fluoro-phenyl)-11-hydroxy-10a,12a-dimethyl-1,2,3,3a,3b,4,5,7,10,10a,10b,11,12,12a-tetradecahydrocyclopenta[5,6]naphtho[1,2-f]indazol-1-yl fluoroacetate], IC50 4.2 nM. Against it:
- C[C@]12Cc3cnn(-c4ccc(F)cc4)c3C=C1CC[C@@H]1[C@@H]2[C@@H](O)C[C@@]2(C)[C@H]1CC[C@]2(OC(=O)CF)C(=O)SCC#N [Example 27, (1R,3aS,3bS,10aR,10bS,1,1S,12aS)-1-{[(Cyanomethyl)thio]carbonyl}-7-(4-fluoro-phenyl)-11-hydroxy-10a,12a-dimethyl-1,2,3,3a,3b,4,5,7,10,10a,10b,11,12,12a-tetradecahydrocyclopenta[5,6]naphtho[1,2-f]indazol-1-yl fluoroacetate] — within 1.5-fold, 3 nM

Same assay, conditions: fluorescence polarization; GS Red tracer; 2 hours at room temperature; 100% control 10 μM Dexamethasone; read-out: Inhibition of GR binding, IC50

Point of comparison: `COCC(=O)O[C@]1(C(=O)SCC#CCO)CC[C@H]2[C@@H]3CCC4=Cc5c(cnn5-c5ccc(F)cc5)C[C@]4(C)[C@H]3[C@@H](O)C[C@@]21C` [Example 31, (1R,3aS,3bS,10aR,10bS,11S,12aS)-7-(4-Fluorophenyl)-11-hydroxy-1-{[(4-hydroxy-but-2-yn-1-yl)thio]carbonyl}-10a,12a-dimethyl-1,2,3,3a,3b,4,5,7,10,10a,10b,11,12,12a-tetradecahydrocyclopenta[5,6]naphtho[1,2-f]indazol-1-yl methoxyacetate], IC50 4.5 nM. Against it:
- CCC(=O)O[C@]1(C(=O)SCCF)CC[C@H]2[C@@H]3CCC4=Cc5c(cnn5-c5ccc(F)cc5)C[C@]4(C)[C@H]3[C@@H](O)C[C@@]21C [Example 26, (1R,3aS,3bS,10aR,10bS,11S,12aS)-1-{[(2-Fluoroethyl)thio]carbonyl}-7-(4-fluoro-phenyl)-11-hydroxy-10a,12a-dimethyl-1,2,3,3a,3b,4,5,7,10,10a,10b,11,12,12a-tetradecahydrocyclopenta[5,6]naphtho[1,2-f]indazol-1-yl propanoate] — within 1.5-fold, 4.3 nM
- CC(=O)OCC(=O)O[C@]1(C(=O)SCC#N)CC[C@H]2[C@@H]3CCC4=Cc5c(cnn5-c5ccc(F)cc5)C[C@]4(C)[C@H]3[C@@H](O)C[C@@]21C [Example 29, (1R,3aS,3bS,10aR,10bS,11S,12aS)-1-{[(Cyanomethyl)thio]carbonyl}-7-(4-fluoro-phenyl)-11-hydroxy-10a,12a-dimethyl-1,2,3,3a,3b,4,5,7,10,10a,10b,11,12,12a-tetradecahydrocyclopenta[5,6]naphtho[1,2-f]indazol-1-yl (acetyloxy)acetate] — within 1.5-fold, 5.7 nM
- COCC(=O)O[C@]1(C(=O)SCC#N)CC[C@H]2[C@@H]3CCC4=Cc5c(cnn5-c5ccc(F)cc5)C[C@]4(C)[C@H]3[C@@H](O)C[C@@]21C [Example 30, (1R,3aS,3bS,10aR,10bS,11S,12aS)-1-{[(Cyanomethyl)thio]carbonyl}-7-(4-fluoro-phenyl)-11-hydroxy-10a,12a-dimethyl-1,2,3,3a,3b,4,5,7,10,10a,10b,11,12,12a-tetradecahydrocyclopenta[5,6]naphtho[1,2-f]indazol-1-yl methoxyacetate] — within 1.5-fold, 3.1 nM
- COCC(=O)O[C@]1(C(=O)SCCO)CC[C@H]2[C@@H]3CCC4=Cc5c(cnn5-c5ccc(F)cc5)C[C@]4(C)[C@H]3[C@@H](O)C[C@@]21C [Example 32, (1R,3aS,3bS,10aR,10bS,11S,12aS)-7-(4-Fluorophenyl)-11-hydroxy-1-{[(2-hydroxy-ethyl)thio]carbonyl}-10a,12a-dimethyl-1,2,3,3a,3b,4,5,7,10,10a,10b,11,12,12a-tetradecahydrocyclopenta[5,6]naphtho[1,2-f]indazol-1-yl methoxyacetate] — 2.8-fold lower, 1.6 nM
- COCC(=O)O[C@]1(C(=O)SCC(C)=O)CC[C@H]2[C@@H]3CCC4=Cc5c(cnn5-c5ccc(F)cc5)C[C@]4(C)[C@H]3[C@@H](O)C[C@@]21C [Example 33, (1R,3aS,3bS,10aR,10bS,11S,12aS)-7-(4-Fluorophenyl)-11-hydroxy-10a,12a-dimethyl-1-{[(2-oxopropyl)thio]carbonyl}-1,2,3,3a,3b,4,5,7,10a,10 b,11,12,12a-tetradecahydrocyclopenta[5,6]naphtho[1,2-f]indazol-1-yl methoxyacetate] — 1.7-fold lower, 2.7 nM
- COCC(=O)O[C@]1(C(=O)SCF)CC[C@H]2[C@@H]3CCC4=Cc5c(cnn5-c5ccc(F)cc5)C[C@]4(C)[C@H]3[C@@H](O)C[C@@]21C [Example 34, (1R,3aS,3bS,10aR,10bS,11S,12aS)-1-{[(Fluoromethyl)thio]carbonyl}-7-(4-fluoro-phenyl)-11-hydroxy-10a,12a-dimethyl-1,2,3,3a,3b,4,5,7,10,10a,10b,11,12,12a-tetradecahydrocyclopenta[5,6]naphtho[1,2-f]indazol-1-yl methoxyacetate] — 2.6-fold lower, 1.7 nM
- C[C@]12Cc3cnn(-c4ccc(F)cc4)c3C=C1CC[C@@H]1[C@@H]2[C@@H](O)C[C@@]2(C)[C@H]1CC[C@]2(OC(=O)C1CC1)C(=O)SCC#N [Example 35, (1R,3aS,3bS,10aR,10bS,11S,12aS)-1-{[(Cyanomethyl)thio]carbonyl}-7-(4-fluoro-Phenyl)-11-hydroxy-10a,12a-dimethyl-1,2,3,3a,3b,4,5,7,10,10a,10b,11,12,12a-tetradecahydrocyclopenta[5,6]naphtho[1,2-f]indazol-1-yl cyclopropanecarboxylate] — within 1.5-fold, 5 nM
- C[C@]12Cc3cnn(-c4ccc(F)cc4)c3C=C1CC[C@@H]1[C@@H]2[C@@H](O)C[C@@]2(C)[C@H]1CC[C@]2(OC(=O)C1CC1)C(=O)SCCO [Example 36, (1R,3aS,3bS,10aR,10bS,11S,12aS)-7-(4-Fluorophenyl)-11-hydroxy-1-{[(2-hydroxy-ethyl)thio]carbonyl}-10a,12a-dimethyl-1,2,3,3a,3b,4,5,7,10,10a,10b,11,12,12a-tetradecahydrocyclopenta[5,6]naphtho[1,2-f]indazol-1-yl cyclopropanecarboxylate] — 1.8-fold lower, 2.5 nM
- C[C@]12Cc3cnn(-c4ccc(F)cc4)c3C=C1CC[C@@H]1[C@@H]2[C@@H](O)C[C@@]2(C)[C@H]1CC[C@]2(OC(=O)C1CC1)C(=O)SCC#CCO [Example 37, (1R,3aS,3bS,10aR,10bS,11S,12aS)-7-(4-Fluorophenyl)-11-hydroxy-{[(4-hydroxybut-2-yn-1-yl)thio]carbonyl}-10a,12a-dimethyl-1,2,3,3a,3b,4,5,7,10,11a,10b,11,12,12a-tetradecahydrocyclopenta[5,6]naphtho[1,2-f]indazol-1-yl cyclopropanecarboxylate] — within 1.5-fold, 5.7 nM
- C[C@]12Cc3cnn(-c4ccc(F)cc4)c3C=C1CC[C@@H]1[C@@H]2[C@@H](O)C[C@@]2(C)[C@H]1CC[C@]2(OC(=O)C1CC1)C(=O)SCF [Example 38, (1R,3aS,3bS,10aR,10bS,11S,12aS)-1-{[(Fluoromethyl)thio]carbonyl}-7-(4-fluoro-phenyl)-11-hydroxy-10a,12a-dimethyl-1,2,3,3a,3b,4,5,7,10,10a,10b,11,12,12a-tetradecahydrocyclopenta[5,6]naphtho[1,2-f]indazol-1-yl cyclopropanecarboxylate] — within 1.5-fold, 5.7 nM
- C[C@]12Cc3cnn(-c4ccc(F)cc4)c3C=C1CC[C@@H]1[C@@H]2[C@@H](O)C[C@@]2(C)[C@H]1CC[C@]2(OC(=O)c1nccs1)C(=O)SCC#N [Example 39, (1R,3aS,3bS,10aR,10bS,11S,12aS)-1-{[(Cyanomethyl)thio]carbonyl}-7-(4-fluorophenyl)-11-hydroxy-10a,12a-dimethyl-1,2,3,3a,3b,4,5,7,10,10a,10b,11,12,12a-tetradecahydropcyclopenta[5,6]naphtho[1,2-f]indazol-1-yl 1,3-thiazole-2-carboxylate] — within 1.5-fold, 3.3 nM
- C[C@]12Cc3cnn(-c4ccc(F)cc4)c3C=C1CC[C@@H]1[C@@H]2[C@@H](O)C[C@@]2(C)[C@H]1CC[C@]2(OC(=O)c1nccs1)C(=O)SCCO [Example 40, (1R,3aS,3bS,10aR,10bS,11S,12aS)-7-(4-Fluorophenyl)-11-hydroxy-1-{[(2-hydroxy-ethyl)thio]carbonyl}-10a,12a-dimethyl-1,2,3,3a,3b,4,5,7,10,10a,10b,11,12,12a-tetradecahydrocyclopenta[5,6]naphtho[1,2-f]indazol-1-yl 1,3-thiazole-2-carboxylate] — 1.6-fold lower, 2.9 nM

From patent US8163724B2, “Glucocorticosteroids, processes for their preparation, pharmaceutical compositions containing them and their use in therapy” (AstraZeneca AB, priority 2007, dated 2012)
